Measured values as given in patent publication USRE47689E1, “Compounds for treating spinal muscular atrophy” (PTC Therapeutics, Inc., priority 2011, dated 2019).
Where two headings read alike, the source gives them in different places.

What was measured:
Smn protein = Smn protein assay in cultured cells (SMN HTRF); type: cell-based, human; settings: for EC1.5x (concentration giving 1.5-fold Smn protein increase): read-out: EC1.5x for Smn protein expression
Summary of the method: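 Smn in SMA fibroblast lysates, measured by anti-SMN HTRF after 48 h compound exposure; EC1.5x from fold change over vehicle.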

[1] = tested on: SMN2 minigene (full length SMN2 minigene mRNA containing SMN2 exon 7); assay: SMN2 minigene mRNA splicing RT-qPCR assay in cultured cells; type: cell-based, human; settings: Homo sapiens, HEK293-H, read-out: EC1.5x for production of full length SMN2 mRNA
Summary of the method: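 Lysates → one-step RT-qPCR, minigene-specific primers (0.4 μM final) + GAPDH multiplex, 40 cycles. FL/GAPDH vs DMSO; EC1.5x, star-binned.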

[2] = SMA patient fibroblast cells, 48 hours, 7-point concentration data, fold increase relative to vehicle control (SMN HTRF)
[3] = HEK293H cells stably transfected with SMN2-A minigene, 24 hours, 7-point concentration curve, 1.5-fold relative to vehicle-treated cells
[4] = SMA Type 1 patient fibroblast cells (GM03813), 48 hours, 7-point concentration curve, SMN HTRF, concentration producing 1.5 times Smn protein vs DMSO vehicle control

Row | melting point | Structure (SMILES) | maximum fold (Fold) increase of Smn protein (Smn protein) | EC1.5x (concentration giving 1.5-fold Smn protein increase) (Smn protein) | EC (1.5-fold) ([1]; 24 h) | maximum fold (Fold) increase of Smn protein (Smn protein; [2]) | EC (1.5-fold) [1, 3] | EC1.5x (concentration giving 1.5-fold Smn protein increase) (Smn protein; [4])
1 | 244 to 254 °C | Cc1cc(F)c2nc(-c3cc4ccc(N5CCNC6(CCC6)C5)cc4oc3=O)cn2c1 [Compound 598, 7-(5,8-diazaspiro[3.5]non-8-yl)-3-(8-fluoro-6-methylimidazo[1,2-a]pyridin-2-yl)-2H-chromen-2-one] | – | – | – | *** (fold increase between >1.35 and ≤1.5) | 0.1 to 0.3 µM | –
2 | 186 to 188 °C | CCOc1ncccc1-c1cc2ccc(N3CCNCC3)cc2oc1=O [Compound 256, 3-(2-ethoxypyridin-3-yl)-7-(piperazin-1-yl)-2H-chromen-2-one] | – | – | – | * (maximum fold increase of ≤1.2) | 3 to 30 µM | –
3 | 109 to 111 °C | COc1c(F)cc(F)cc1-c1cc2ccc(N3C[C@@H](C)N[C@@H](C)C3)cc2oc1=O [Compound 540, 3-(3,5-difluoro-2-methoxyphenyl)-7-[(3R,5S)-3,5-dimethylpiperazin-1-yl]-2H-chromen-2-one] | – | – | – | * (maximum fold increase of ≤1.2) | 3 to 30 µM | –
4 | 265 to 271 °C | C[C@@H]1CN(c2ccc3cc(-c4cn5cc(Cl)cnc5n4)c(=O)oc3c2)C[C@H](C)N1 [Compound 349, 3-(6-chloroimidazo[1,2-a]pyrimidin-2-yl)-7-[(3R,5S)-3,5-dimethylpiperazin-1-yl]-2H-chromen-2-one] | – | – | – | * (maximum fold increase of ≤1.2) | 1 to 3 µM | –
5 | 290 to 292 °C | CN1CCN(c2ccc3cc(-c4cn5cc(Cl)ccc5n4)c(=O)oc3c2)CC1 [Compound 94, 3-(6-chloroimidazo[1,2-a]pyridin-2-yl)-7-(4-methylpiperazin-1-yl)-2H-chromen-2-one] | – | – | – | *** (fold increase between >1.35 and ≤1.5) | 3 to 30 µM | –
6 | 286 to 292 °C | Cc1cn2cc(-c3cc4ccc(Cn5ccnc5)cc4oc3=O)nc2c(C)n1 [Compound 851, 3-(6,8-dimethylimidazo[1,2-a]pyrazin-2-yl)-7-(1H-imidazol-1-ylmethyl)-2H-chromen-2-one] | – | – | – | *** (fold increase between >1.35 and ≤1.5) | 1 to 3 µM | –
7 | 244 to 249 °C | CN1CCCN(c2ccc3cc(-c4cn5ccc(C(F)(F)F)cc5n4)c(=O)oc3c2)CC1 [Compound 276, 7-(4-methyl-1,4-diazepan-1-yl)-3-[7-(trifluoromethyl)imidazo[1,2-a]pyridin-2-yl]-2H-chromen-2-one] | – | – | – | * (maximum fold increase of ≤1.2) | 0.3 to 1 µM | –
8 | 182 to 184 °C | Cc1cn2cc(-c3cc4ccc(N5CCN6CCC[C@H]6C5)cc4oc3=O)cc2cn1 [Compound 643, 7-[(8aS)-hexahydropyrrolo[1,2-a]pyrazin-2(1H)-yl]-3-(3-methylpyrrolo[1,2-a]pyrazin-7-yl)-2H-chromen-2-one] | – | – | – | **** (fold increase between >1.5 and ≤1.65) | < 0.1 µM | < 300 nM
9 | 320 to 325 °C | Cl.O=c1oc2cc(N3CCNCC3)ccc2cc1-c1nc2cc(F)ccc2o1 [Compound 19, 3-(5-fluoro-1,3-benzoxazol-2-yl)-7-(piperazin-1-yl)-2H-chromen-2-one hydrochloride] | – | – | – | * (maximum fold increase of ≤1.2) | 1 to 3 µM | –
10 | 221 to 222 °C | Cc1nccn2cc(-c3cc4ccc(N5CCN(C)CC5)cc4oc3=O)nc12 [Compound 551, 3-(8-methylimidazo[1,2-a]pyrazin-2-yl)-7-(4-methylpiperazin-1-yl)-2H-chromen-2-one] | – | – | – | *** (fold increase between >1.35 and ≤1.5) | 0.3 to 1 µM | < 300 nM
11 | 249 to 259 °C | CCN1CCC(c2ccc3cc(-c4cn5cc(C)ncc5n4)c(=O)oc3c2)CC1 [Compound 844, 7-(1-ethylpiperidin-4-yl)-3-(6-methylimidazo[1,2-a]pyrazin-2-yl)-2H-chromen-2-one] | – | – | – | **** (fold increase between >1.5 and ≤1.65) | < 0.1 µM | 300 to 1000 nM
12 | 175 to 177 °C | Cc1cn2cc(-c3cc4ccc(OCCN5CCOCC5)cc4oc3=O)nc2c(C)n1 [Compound 956, 3-(6,8-dimethylimidazo[1,2-a]pyrazin-2-yl)-7-[2-(morpholin-4-yl)ethoxy]-2H-chromen-2-one] | – | – | – | ***** (fold increase >1.65) | 0.1 to 0.3 µM | 1000 to 3000 nM
13 | 204 to 206 °C | Cc1cn2cc(-c3cc4ccc(C5CCN(C)CC5)cc4oc3=O)ccc2n1 [Compound 826, 3-(2-methylimidazo[1,2-a]pyridin-6-yl)-7-(1-methylpiperidin-4-yl)-2H-chromen-2-one] | – | – | – | ***** (fold increase >1.65) | < 0.1 µM | < 300 nM
14 | 150 to 152 °C | Cc1cn2cc(-c3cc4ccc(N5CC(CN(C)C)C5)cc4oc3=O)nc2c(C)n1 [Compound 966, 7-{3-[(dimethylamino)methyl]azetidin-1-yl}-3-(6,8-dimethylimidazo[1,2-a]pyrazin-2-yl)-2H-chromen-2-one] | – | – | – | **** (fold increase between >1.5 and ≤1.65) | < 0.1 µM | < 300 nM
15 | 170 to 173 °C | CN1CCCN(c2ccc3cc(-c4nc5ccccc5o4)c(=O)oc3c2)CC1 [Compound 47, 3-(1,3-benzoxazol-2-yl)-7-(4-methyl-1,4-diazepan-1-yl)-2H-chromen-2-one] | – | – | – | ** (fold increase between >1.2 and ≤1.35) | 3 to 30 µM | –
16 | 246 to 254 °C | Cc1cc(F)c2nc(-c3cc4ccc(N5CCN[C@H](C)C5)cc4oc3=O)cn2c1 [Compound 420, 3-(8-fluoro-6-methylimidazo[1,2-a]pyridin-2-yl)-7-[(3R)-3-methylpiperazin-1-yl]-2H-chromen-2-one] | – | – | – | **** (fold increase between >1.5 and ≤1.65) | < 0.1 µM | < 300 nM
17 | 175 to 180 °C | CN(C)CCN(C)c1ccc2cc(-c3cn4cccnc4n3)c(=O)oc2c1 [Compound 130, 7-{[2-(dimethylamino)ethyl](methyl)amino}-3-(imidazo[1,2-a]pyrimidin-2-yl)-2H-chromen-2-one] | – | – | – | * (maximum fold increase of ≤1.2) | 1 to 3 µM | –
18 | 200 to 205 °C | Cc1cc2cc(-c3cc4ccc(N5CCN(C)[C@@H](C)C5)cc4oc3=O)oc2c(C)n1 [Compound 805, 3-(5,7-dimethylfuro[2,3-c]pyridin-2-yl)-7-[(3S)-3,4-dimethylpiperazin-1-yl]-2H-chromen-2-one] | – | – | – | ***** (fold increase >1.65) | < 0.1 µM | < 300 nM
19 | 265 to 270 °C | Cc1ccc2nc(-c3cc4c(F)cc(N5CCNCC5)cc4oc3=O)cn2c1 [Cpd 162, 5-fluoro-3-(6-methylimidazo[1,2-a]pyridin-2-yl)-7-(piperazin-1-yl)-2H-chromen-2-one] | – | – | – | *** (fold increase between >1.35 and ≤1.5) | 0.1 to 0.3 µM | 300 to 1000 nM
20 | 210 to 213 °C | O=c1oc2cc(N3CCCNCC3)ccc2cc1-c1cn2cccc(F)c2n1 [Compound 357, 7-(1,4-diazepan-1-yl)-3-(8-fluoroimidazo[1,2-a]pyridin-2-yl)-2H-chromen-2-one] | – | – | – | *** (fold increase between >1.35 and ≤1.5) | 0.1 to 0.3 µM | –
21 | 275 to 284 °C | Cc1cc(F)c2nc(-c3cc4ccc(N5CCNC(C)(C)C5)cc4oc3=O)cn2c1 [Compound 426, 7-(3,3-dimethylpiperazin-1-yl)-3-(8-fluoro-6-methylimidazo[1,2-a]pyridin-2-yl)-2H-chromen-2-one] | – | – | – | *** (fold increase between >1.35 and ≤1.5) | 0.1 to 0.3 µM | –
22 | 175 to 180 °C | Cc1ccc2nc(-c3cc4ccc(N5CCCN(C)CC5)cc4oc3=O)cn2c1 [Compound 142, 7-(4-methyl-1,4-diazepan-1-yl)-3-(6-methylimidazo[1,2-a]pyridin-2-yl)-2H-chromen-2-one] | – | – | – | **** (fold increase between >1.5 and ≤1.65) | 1 to 3 µM | 300 to 1000 nM

Row | Structure (SMILES) | melting point | maximum fold (Fold) increase of Smn protein (Smn protein) | EC1.5x (concentration giving 1.5-fold Smn protein increase) (Smn protein) | EC (1.5-fold) ([1]; 24 h) | maximum fold (Fold) increase of Smn protein (Smn protein; [2]) | EC (1.5-fold) [1, 3] | EC1.5x (concentration giving 1.5-fold Smn protein increase) (Smn protein; [4])
23 | Cc1cn2cc(-c3cc4ccc(C5=CCN(C(C)C)CC5)cc4oc3=O)nc2c(C)n1 [Compound 802, 3-(6,8-dimethylimidazo[1,2-a]pyrazin-2-yl)-7-[1-(propan-2-yl)-1,2,3,6-tetrahydropyridin-4-yl]-2H-chromen-2-one] | 207 to 217 °C | **** (key: *: maximum fold increase of ≤1.2; **: fold increase between >1.2 and ≤1.35; ***: fold increase between >1.35 and ≤1.5; ****: fold increase between >1.5 and ≤1.65; *****: fold increase >1.65) | < 300 nM | < 0.1 µM | – | – | –
